Experimental findings from patent US7285555B2, “6-aryl-7-halo-imidazo[1,2-a]pyrimidines as anticancer agents” (Wyeth Holdings Corporation, priority 2003, dated 2007) are described below.

The test system of one assay is COLO 205 cells. The experiment in a line: MTS cytotoxicity test procedure with COLO 205 cells. Format: cell-based. The conditions noted are these: Homo sapiens, 72 h, MTS assay, three days of culture. On the procedure:
(§1) The MTS assay, which is sold in kit form by Promega (Madison, Wis.; CellTiter 96 AQueous Non-Radioactive Cell Proliferation Assay), is based on the conversion by viable cells, but not by dead cells, of the tetrazolium salt, MTS (3-(4,5-dimethylthiazol-2-yl)-5-(3-carboxymethoxyphenyl)-2-(4-sulphophenyl)-2H-tetrazolium, inner salt), into a water-soluble colored formazan which is detected by spectrophotometry. Compounds are tested at nine concentrations, in order to determine IC50 values. For the test procedure, cells are harvested by trypsinization (or, in the case of non-adherent cells, by simple resuspension), washed, counted and distributed to wells of 96-well flat-bottom microtiter plates at 1000 cells per well in 200 μL of medium. In addition, one row of wells on a separate plate receives cells as above (“time 0” plate). All plates are incubated at 370 in humidified 5% CO2 in air for about 24 hr.
On day 2, compounds for test are diluted and added to wells. Compounds are dissolved in DMSO at 10 mg/mL. For each compound, nine serial 2-fold dilutions are prepared in DMSO. Ten μL of each dilution in DMSO is transferred to 100 μL of medium, mixed well, and then 5 μL of this dilution is transferred in quadruplicate to wells containing cells. The final high concentration of each compound is typically 1-5 μM. Plates are returned to the incubator for three days. At the time of drug addition to the experimental plates, the MTS assay is run on the “time 0” plate. This gives the “time 0 MTS value” which is related to the number of viable cells per well at the time of drug addition.
After three days of culture with test compounds (day 5 overall), the MTS assay is done on all wells of the experimental plates. The absorbance values of the quadruplicate sample wells are averaged and divided by the average of the “time 0” values. The average of control wells without drug, divided by the average “time 0” value, gives the maximal relative increase in MTS color yield due to cell growth during the final three days of culture. The average of control wells with high drug concentration, divided by the “time 0” value, gives the minimal relative color yield for cells that were completely killed. The nine values for each compound are plotted against concentration, and the concentration that produces a relative color yield half way between the maximum and minimum is taken as the IC50 value.
COLO 205 is a human colon carcinoma cell line that is used for comparative testing of the examples of this invention and several reference compounds (Table 1). This line is sensitive to paclitaxel and vincristine.
(Tetrazolium assays rely on reduction of a dye to a coloured formazan, in cell work by metabolically active cells.)

In the next assay the test system is S1-M1 cells. The assay is described as follows: MTS cytotoxicity test procedure with S1-M1 cells. Format: cell-based, human. Particulars: for Ratio: IC50 on S1-M1 cells/IC50 on S1 cells.
Text: Human cancer cell lines, unless otherwise noted, are obtained from the American Type Culture Collection (Rockville, Md.). The following drug-sensitive parental cell lines, and their derived drug-resistant counterparts, are obtained from the originators as listed: (a) S1 (parental line from a subclone of human colon carcinoma line LS174T) and derived S1-M1-3.2 (herein called S1-M1) which expresses the MXR drug transporter protein, are provided by Dr. L. Greenberger, Wyeth Research (Rabindran, S. K., He, H., Singh, M., Brown, E., Collins, K. I., Annable, T., and Greenberger, L. M. Reversal of a novel multidrug resistance mechanism in human colon carcinoma cells by fumitremorgin C. Cancer Res., 58: 5850-5858,1998); (b) parental HL-60 human promyelocytic leukemia line and derived HL-60/ADR, which expresses the MRP1 drug transporter protein, are provided by Dr. M. Center, University of Kansas (McGrath, T., and Center, M. S. Adriamycin resistance in HL60 cells in the absence of detectable P-glycoprotein. Biochem. Biophys. […] J. Biol. Chem., 261: 7762-7770, 1986) via Dr. L. Greenberger, Wyeth Research.
as §1
On day 2, compounds for test are diluted and added to wells. Compounds are dissolved in DMSO at 10 mg/mL. For each compound, nine serial 2-fold dilutions are prepared in DMSO. Ten μL of each dilution in DMSO is transferred to 100 μL of medium, mixed well, and then 5 μL of this dilution is transferred in quadruplicate to wells containing cells. […] Plates are returned to the incubator for three days. At the time of drug addition to the experimental plates, the MTS assay is run on the “time 0” plate.
After three days of culture with test compounds (day 5 overall), the MTS assay is done on all wells of the experimental plates. The absorbance values of the quadruplicate sample wells are averaged and divided by the average of the “time 0” values. […]

Turning to `CN(C)CCCOc1cc(F)c(-c2c(Cl)nc3nccn3c2C2CCCCCC2)c(F)c1` [Example 6, 3-[4-(7-Chloro-5-cycloheptylimidazo[1,2-a]pyrimidin-6-yl)-3,5-difluorophenoxy]-N,N-dimethylpropan-1-amine], the IC50 (as a rule, the concentration at which inhibition is half-maximal) in the assay with COLO 205 cells worked out at 0.045 µM; with S1-M1 cells (Homo sapiens, MTS assay, S1-M1 cells, means of 2 independent experiments), 0.068 µM. In addition, the results for the Ratio with S1-M1 cells and in the assay on S1-M1 cells (listed as example 6) were 1.1 and “no resistance”, respectively.
